The source of these data is PMC6340895 (Protein & Cell, 2019).

The subject of data set [1] is LASV. The conditions noted are these: cited from earlier work.
The nature of data set [2]: in vitro.
Data set [3] has as its system pseudotype of GTOV, JUNV, MACV, SABV, CHAPV, LCMV, LUJV, MOPV, EBOV, and MARV. The format is cell-based.
The subject of data set [4] is JUNVpv. Kind of data set: organism not typed. The format is cell-based, Junín virus (JUNV). The conditions noted are these: read-out: JUNVpv IC50.
The test system of data set [5] is pseudotype of NW pathogenic arenaviruses. The format is cell-based.
Data set [6] has as its system CHAPVpv. Kind of data set: microbe, parasite or virus in culture. It counts as cell-based, Chapare virus (CHAPV). Particulars: Mammarenavirus chapareense, read-out: CHAPVpv IC50.
Data set [7] concerns SABVpv. The experiment in a line: organism not typed. It counts as cell-based, Sabiá virus (SABV). The conditions noted are these: read-out: SABVpv IC50.
For data set [8], the system named is TfR1. The format is cell-based.

Bounds are passed on as bounds.

As to `C/C(=N\NC(=O)C1CC1c1ccccc1)c1ccc(NC(=O)c2ccco2)cc1` (stereo not shown) [ST-161], the Antiviral specificity entry in data set [1] is on record as “LASV specific”.
On to `C/C(=N\NC(=O)CCc1ccccc1)c1ccc(NC(=O)c2ccco2)cc1` [compound 3, O=C(CCC1=CC=CC=C1)N/N=C(C)/C2=CC=C(NC(C3=CC=CO3)=O)C=C2], for which, in data set [2], the CC50 is greater than 30 µM.
Still for that read-out and setting: to `C/C(=N\NC(=O)Cc1ccccc1)c1ccc(NC(=O)c2ccco2)cc1` [compound 7, O=C(CC1=CC=CC=C1)N/N=C(C)/C2=CC=C(NC(C3=CC=CO3)=O)C=C2] belongs greater than 30 µM; to `C/C(=N\NC(=O)Cc1ccc(Cl)cc1Cl)c1ccc(NC(=O)c2ccco2)cc1` [compound 8, O=C(CC1=C(Cl)C=C(Cl)C=C1)N/N=C(C)/C2=CC=C(NC(C3=CC=CO3)=O)C=C2], greater than 30 µM.
The same measure, in the same setting: under `C/C(=N\NC(=O)CCc1ccc(C)cc1)c1ccc(NC(=O)c2ccco2)cc1` [compound 9, O=C(CCC1=CC=C(C)C=C1)N/N=C(C)/C2=CC=C(NC(C3=CC=CO3)=O)C=C2] stands greater than 30 µM.
The same measure, in the same setting: under `C/C(=N\NC(=O)CCc1ccccc1F)c1ccc(NC(=O)c2ccco2)cc1` [compound 10, O=C(CCC1=C(F)C=CC=C1)N/N=C(C)/C2=CC=C(NC(C3=CC=CO3)=O)C=C2] stands greater than 30 µM.
Consider `C/C(=N\NC(=O)CCc1ccccc1C)c1ccc(NC(=O)c2ccco2)cc1` [compound 20, O=C(CCC1=C(C)C=CC=C1)N/N=C(C)/C2=CC=C(NC(C3=CC=CO3)=O)C=C2], for which the CC50 in data set [2] was greater than 30 µM.
In data set [2], `C/C(=N\NC(=O)CCc1cccc(C)c1)c1ccc(NC(=O)c2ccco2)cc1` [compound 21, O=C(CCC1=CC(C)=CC=C1)N/N=C(C)/C2=CC=C(NC(C3=CC=CO3)=O)C=C2] showed a CC50 greater than 30 µM. Further, the “Antiviral specificity across pseudotype panel” value in data set [3] was “largely maintained LASV specificity”.
In data set [2], `COc1ccc(CCC(=O)N/N=C(\C)c2ccc(NC(=O)c3ccco3)cc2)cc1` [compound 22, O=C(CCC1=CC=C(OC)C=C1)N/N=C(C)/C2=CC=C(NC(C3=CC=CO3)=O)C=C2] displayed a CC50 greater than 30 µM.
Still for that read-out and setting: under `C/C(=N\NC(=O)CCCc1ccc(C)cc1)c1ccc(NC(=O)c2ccco2)cc1` [compound 23, O=C(CCCC1=CC=C(C)C=C1)N/N=C(C)/C2=CC=C(NC(C3=CC=CO3)=O)C=C2] stands greater than 30 µM.
`C/C(=N\NC(=O)CCc1ccc([N+](=O)[O-])cc1)c1ccc(NC(=O)c2ccco2)cc1` [compound 24, O=C(CCC1=CC=C([N+]([O-])=O)C=C1)N/N=C(C)/C2=CC=C(NC(C3=CC=CO3)=O)C=C2] showed a CC50 in data set [2] greater than 30 µM.
Take `C/C(=N\NC(=O)CCc1cccc([N+](=O)[O-])c1)c1ccc(NC(=O)c2ccco2)cc1` [compound 25, O=C(CCC1=CC([N+]([O-])=O)=CC=C1)N/N=C(C)/C2=CC=C(NC(C3=CC=CO3)=O)C=C2]: the CC50 in data set [2] is greater than 30 µM.
Same read-out and setting: to `C/C(=N\NC(=O)CCc1ccc(F)cc1)c1ccc(NC(=O)c2ccco2)cc1` [compound 26, O=C(CCC1=CC=C(F)C=C1)N/N=C(C)/C2=CC=C(NC(C3=CC=CO3)=O)C=C2] belongs greater than 30 µM.
For the compound `C/C(=N\NC(=O)CCCCc1ccccc1)c1ccc(NC(=O)c2ccco2)cc1` [compound 27, O=C(CCCCC1=CC=CC=C1)N/N=C(C)/C2=CC=C(NC(C3=CC=CO3)=O)C=C2], the CC50 in data set [2] is greater than 30 µM.
On the same count and under the same terms, under `COc1ccc(CCC(=O)N/N=C(\C)c2ccc(NC(=O)c3ccco3)cc2)c(OC)c1` [compound 28, O=C(CCC1=C(OC)C=C(OC)C=C1)N/N=C(C)/C2=CC=C(NC(C3=CC=CO3)=O)C=C2] stands greater than 30 µM.
Take `C/C(=N\NC(=O)CCc1ccc(Br)cc1)c1ccc(NC(=O)c2ccco2)cc1` [compound 29, O=C(CCC1=CC=C(Br)C=C1)N/N=C(C)/C2=CC=C(NC(C3=CC=CO3)=O)C=C2]: in data set [2], the CC50 was greater than 30 µM. Further, the “Antiviral specificity across pseudotype panel” value in data set [3] was “largely maintained LASV specificity”.
As for `C/C(=N\NC(=O)CCc1ccccc1C(F)(F)F)c1ccc(NC(=O)c2ccco2)cc1` [compound 30, O=C(CCC1=C(C(F)(F)F)C=CC=C1)N/N=C(C)/C2=CC=C(NC(C3=CC=CO3)=O)C=C2], the CC50 in data set [2] is greater than 30 µM.
The same measure, in the same setting: to `COc1ccc(CC(=O)N/N=C(\C)c2ccc(NC(=O)c3ccco3)cc2)cc1` [compound 54, O=C(CC1=CC=C(OC)C=C1)N/N=C(C)/C2=CC=C(NC(C3=CC=CO3)=O)C=C2] belongs greater than 30 µM; to `C/C(=N\NC(=O)CCCc1ccccc1)c1ccc(NC(=O)c2ccco2)cc1` [compound 56, O=C(CCCC1=CC=CC=C1)N/N=C(C)/C2=CC=C(NC(C3=CC=CO3)=O)C=C2], greater than 30 µM.
Usually IC50 stands for the concentration needed to halve the response being measured. For the compound `C/C(=N\NC(=O)CCc1ccc(C(C)(C)C)cc1)c1ccc(NC(=O)c2ccco2)cc1` [compound 57, O=C(CCC1=CC=C(C(C)(C)C)C=C1)N/N=C(C)/C2=CC=C(NC(C3=CC=CO3)=O)C=C2], in data set [2], the CC50 is greater than 30 µM. The concentration for half-maximal inhibition (IC50) is 96 nM in data set [4], 89.8 nM in data set [6] and 244 nM in data set [7]. Further, in data set [5], the “Effect on binding of NW pathogenic viruses” value was “no effect”. Besides, in data set [8], the “Cell surface expression of TfR1” value is “did not down-regulate”.
In the case of `Cc1ccc(CCC(=O)CCC(C)c2ccc(NC(=O)c3ccco3)cc2)cc1` (stereo not shown) [compound 72], the “Antiviral specificity across pseudotype panel” value in data set [3] is “largely maintained LASV specificity”.
